From ChEMBL document CHEMBL4402552, “The Discovery of 7-Methyl-2-[(7-methyl[1,2,4]triazolo[1,5-a]pyridin-6-yl)amino]-9-(tetrahydro-2H-pyran-4-yl)-7,9-dihydro-8H-purin-8-one (AZD7648), a Potent and Selective DNA-Dependent Protein Kinase (DNA-PK) Inhibitor” (J Med Chem, 2020)
≈ marks a conversion by molar mass, not a printed value.

How the values were obtained:
physchem = settings: buffer, pH 7.4
[1] = Drug metabolism in human hepatocytes assessed as dealkylation at 5 uM measured after 60 mins by UV-MS analysis; format: ADME, cell-based, Hepatocyte; settings: 1 h
[2] = Drug metabolism in rat hepatocytes assessed as dealkylation at 5 uM measured after 60 mins by UV-MS analysis; format: ADME, cell-based, Hepatocyte; settings: 1 h
[3] = Intrinsic clearance in human microsomes; format: ADME, Microsome
[4] = Drug metabolism in mouse hepatocytes assessed as dealkylation at 5 uM measured after 60 mins by UV-MS analysis; format: ADME, cell-based, Hepatocyte; settings: 1 h
[5] = Drug metabolism in mouse hepatocytes assessed as dealkylation and oxidation by measuring iminoquinone formation at 5 uM measured after 60 mins by UV-MS analysis; format: ADME, cell-based, Hepatocyte; settings: 1 h
[6] = Drug metabolism in rat hepatocytes assessed as dealkylation and oxidation by measuring iminoquinone formation at 5 uM measured after 60 mins by UV-MS analysis; format: ADME, cell-based, Hepatocyte; settings: 1 h
[7] = Apparent permeability across apical to basolateral side in human Caco2 cells in absence of efflux inhibitor by ABBA assay; format: ADME, cell-based; settings: Caco-2
[8] = Dissociation constant, pKa of the compound; format: physicochemical
[9] = Drug level in mouse hepatocytes treated with 9-(trans-4-Hydroxycyclohexyl)-2-[(4-methoxy-2-methylphenyl)amino]-7-methyl-7,9-dihydro-8H-purin-8-one assessed as compound formation at 5 uM measured after 60 mins by UV-MS analysis; format: ADME, cell-based, Hepatocyte; settings: 1 h
[10] = Drug level in rat hepatocytes treated with 9-(trans-4-Hydroxycyclohexyl)-2-[(4-methoxy-2-methylphenyl)amino]-7-methyl-7,9-dihydro-8H-purin-8-one assessed as compound formation at 5 uM measured after 60 mins by UV-MS analysis; format: ADME, cell-based, Hepatocyte; settings: 1 h
[11] = Cmax in ATM knock out human FADU cells xenografted SCID mouse at 100 mg/kg, po qd measured after 2 hrs; format: ADME, organism-based; settings: in vivo, read-out: T>IC50
[12] = Solubility of the compound in fasted state simulated intestinal fluid using crystalline sample; format: physicochemical
[13] = Solubility of the compound in simulated gastric fluid using crystalline sample; format: physicochemical
[14] = Oral bioavailability in Beagle dog at 2 mg/kg; format: ADME, organism-based, Canis lupus familiaris; settings: in vivo
[15] = Oral bioavailability in Han Wistar rat at 5 mg/kg; format: ADME, organism-based; settings: in vivo
[16] = Volume of distribution at steady state in Han Wistar rat at 2 mg/kg, iv or 5 mg/kg, po; format: ADME, organism-based; settings: in vivo, read-out: Vdss
[17] = Free plasma concentration in SCID mouse at 100 mg/kg, po qd measured after 10 hrs; format: ADME, organism-based; settings: in vivo
[18] = Time at which plasma concentration stays above in vitro IC50 for inhibition of DNA-PK in human A549 cells in SCID mouse at 100 mg/kg, po qd; format: organism-based; settings: in vivo
[19] = Volume of distribution at steady state in Beagle dog at 1 mg/kg, iv or 2 mg/kg, po; format: ADME, organism-based, Canis lupus familiaris; settings: in vivo, read-out: Vdss

For Cc1c(Nc2ncc3c(n2)n([C@H]2CC[C@H](O)CC2)c(=O)n3C)ccc2nccn12, which logD (physchem) is on record?
Its logD is 1.2.

What does the source list for COc1ccc(Nc2ncc3c(n2)n([C@H]2CC[C@H](O)CC2)c(=O)n3C)c(C)c1?
Drug metabolism [1]: Metabolite_Detected; Drug metabolism [2]: Metabolite_Detected; microsomal CLint [3]: 49 µL/min/mg; logD (physchem): 2.3; Drug metabolism [4]: Metabolite_Detected; Drug metabolism [5]: Metabolite_Detected; Drug metabolism [6]: Metabolite_Detected

With COc1ccc(Nc2ncc3c(n2)n(-c2ccccc2)c(=O)n3C)c(C)c1 as the compound, how does the logD (physchem) read?
Its logD is 2.8.

Which logD (physchem) does the source give for COc1ccc(Nc2ncc3c(n2)n(C2CCCCC2)c(=O)n3C)c(C)c1 here?
Its logD is 4.1.

For Cn1c(=O)n([C@H]2CC[C@H](O)CC2)c2nc(Nc3ccccc3)ncc21, which logD (physchem) is on record?
Its logD is 2.4.

What does the source list for Cc1cc2ncnn2cc1Nc1ncc2c(n1)n([C@H]1CC[C@](C)(O)CC1)c(=O)n2C?
logD (physchem): 1.1; Papp A→B [7]: 0.7 ×10⁻⁶ cm/s

For Cc1ccccc1Nc1ncc2c(n1)n([C@H]1CC[C@H](O)CC1)c(=O)n2C, which logD (physchem) is on record?
The logD was 2.5.

With Cc1cc2nccn2cc1Nc1ncc2c(n1)n([C@H]1CC[C@H](O)CC1)c(=O)n2C as the compound, how does the logD (physchem) read?
Its logD is 1.4.

What about the Papp A→B [7] of the same compound?
The Papp A→B was 0.4 ×10⁻⁶ cm/s.

Which microsomal CLint [3] does the source give for Cc1cc2ncnn2cc1Nc1ncc2c(n1)n(C1CCC(F)(F)CC1)c(=O)n2C here?
The microsomal CLint was 68 µL/min/mg.

What about the logD (physchem) of the same compound?
The logD was 2.

And the Papp A→B [7]?
Its Papp A→B is 23 ×10⁻⁶ cm/s.

Which logD (physchem) does the source give for COc1ccc(Nc2ncc3c(n2)n(C2CCCC2)c(=O)n3C)c(C)c1 here?
The logD was 3.7.

For Cc1cc2ncnn2cc1Nc1ncc2c(n1)n([C@H]1CC[C@@](C)(O)CC1)c(=O)n2C, which pKa [8] is on record?
Its pKa is 3.6.

What about the logD (physchem) of the same compound?
The logD was 1.9.

And the Papp A→B [7]?
The Papp A→B was 24 ×10⁻⁶ cm/s.

What does the source list for Cc1cc2nccn2cc1Nc1ncc2c(n1)n(C1CCOCC1)c(=O)n2C?
pKa [8]: 7.1; Papp A→B [7]: 11 ×10⁻⁶ cm/s

With NC1=C(C(=O)c2ccccc2)/C(=N/c2ccccc2C(=O)c2ccccc2)C=CC1=O as the compound, how does the Drug uptake [9] read?
The Drug uptake was “Metabolite_Detected”.

What about the Drug uptake [10] of the same compound?
Its Drug uptake is “Metabolite_Detected”.

With Cn1c(=O)n([C@H]2CC[C@H](O)CC2)c2nc(Nc3ccc4ncnn4c3)ncc21 as the compound, how does the logD (physchem) read?
The logD was 1.7.

With Cn1c(=O)n([C@H]2CC[C@H](O)CC2)c2nc(Nc3ccc4nccn4c3)ncc21 as the compound, how does the logD (physchem) read?
Its logD is 1.8.

Which pKa [8] does the source give for Cc1cc2ncnn2cc1Nc1ncc2c(n1)n(C1CCOCC1)c(=O)n2C [AZD-7648] here?
The pKa was 3.4.

What about the Cmax [11] of the same compound?
The Cmax was 17 µM.

And the solubility thermodynamic [12]?
The solubility thermodynamic was 180 µM (≈ 68.5 µg/mL).

What about the solubility thermodynamic [13] of the same compound?
The solubility thermodynamic was over 10000 µM.

What about the logD (physchem) of the same compound?
Its logD is 1.3.

And the Papp A→B [7]?
The Papp A→B was 22 ×10⁻⁶ cm/s.

What about the bioavailability [14] of the same compound?
Its bioavailability is 93%.

And the bioavailability [15]?
Its bioavailability is 104%.

What about the Vd [16] of the same compound?
Its Vd is 1.4 L/kg.

And the “Cp(f)” value [17]?
The value was over 1 µM.

What about the Time [18] of the same compound?
Its Time is over 12 h.

And the Vd [19]?
The Vd was 0.7 L/kg.

For COc1ccc(Nc2ncc3[nH]c(=O)n([C@H]4CC[C@H](O)CC4)c3n2)c(C)c1, which logD (physchem) is on record?
The logD was 2.3.

Which logD (physchem) does the source give for COc1ccc(Nc2ncc3c(n2)n([C@H]2CC[C@H](O)CC2)c(=O)n3C)cc1 here?
The logD was 2.3.

Which microsomal CLint [3] does the source give for Cc1cc2ncnn2cc1Nc1ncc2c(n1)n(C1CCCCC1)c(=O)n2C here?
The microsomal CLint was 93 µL/min/mg.

And the logD (physchem)?
The logD was 3.1.

What about the Papp A→B [7] of the same compound?
The Papp A→B was 24 ×10⁻⁶ cm/s.

With COc1ccc(C)c(Nc2ncc3c(n2)n([C@H]2CC[C@H](O)CC2)c(=O)n3C)c1 as the compound, how does the logD (physchem) read?
The logD was 2.6.

With Cc1cc2ncnn2cc1Nc1ncc2c(n1)n([C@H]1CC[C@H](O)CC1)c(=O)n2C as the compound, how does the logD (physchem) read?
The logD was 1.3.

And the Papp A→B [7]?
Its Papp A→B is 0.4 ×10⁻⁶ cm/s.
